Assay: surface tension by Du Noüy ring method, Krüss K20 EasyDyne tensiometer
Assay type: physicochemical
Settings: for Surface tension: room temperature
Protocol: As used herein, the term “surface tension” refers to the force required to increase the unit area of a surface of a liquid or of an interface between two liquids or between a liquid and a gas, generally stated in units of dynes/cm. Surface tensions described herein are measured by the Du Noüy ring method utilizing an EasyDyne tensiometer model K20 marketed by Krüss USA, Matthews, N.C.
Surface tension of a fluid containing water was determined prior to and after mixing with various concentrations of various water soluble organic solvents in water. […] The study was performed at room temperature utilizing a Kruss Surface Tensiometer, Model K20 EasyDyne (Kruss USA, Matthews, N.C.) and the results are shown in Table 4. Values for surface tension are in dynes/cm.

CC1COC(=O)O1 (stereo not shown) [Propylene Carbonate, propylene carbonate] showed a Surface tension (1.0 % w/w solvent in water) of 68.5 dynes/cm, a Surface tension (2.5 % w/w solvent in water) of 63.8 dynes/cm and a Surface tension (5 % w/w solvent in water) of 56.8 dynes/cm. The Surface tension (7.5 % w/w solvent in water) was 49.6 dynes/cm, the Surface tension (10 % w/w solvent in water) was 45.9 dynes/cm and the Surface tension (12.5 % w/w solvent in water) was 46.5 dynes/cm. For the same molecule, the Surface tension (15.0 % w/w solvent in water) was 44.1 dynes/cm and the Surface tension (17.5 % w/w solvent in water) was 43.5 dynes/cm.

In the case of CO[C@H]1CO[C@H]2[C@@H]1OC[C@H]2OC [Dimethyl Isosorbide, dimethyl isosorbide], the Surface tension (1.0 % w/w solvent in water) is reported as 66.0 dynes/cm, the Surface tension (2.5 % w/w solvent in water) is reported as 61.7 dynes/cm and the Surface tension (5 % w/w solvent in water) is reported as 52.8 dynes/cm. For the same molecule, the Surface tension (7.5 % w/w solvent in water) was 52.1 dynes/cm, the Surface tension (10 % w/w solvent in water) was 47.9 dynes/cm and the Surface tension (12.5 % w/w solvent in water) was 46.4 dynes/cm. For the same molecule, the Surface tension (15.0 % w/w solvent in water) was 43.5 dynes/cm, the Surface tension (17.5 % w/w solvent in water) was 41.9 dynes/cm and the Surface tension (20 % w/w solvent in water) was 38.6 dynes/cm. For the same molecule, the Surface tension (22.5 % w/w solvent in water) was 40.5 dynes/cm, the Surface tension (25 % w/w solvent in water) was 41.7 dynes/cm and the Surface tension (100 % w/w solvent) was 39.3 dynes/cm.

For CCO [Ethanol (200 proof), ethanol], the Surface tension (1.0 % w/w solvent in water) was 67.4 dynes/cm, the Surface tension (2.5 % w/w solvent in water) was 62.0 dynes/cm and the Surface tension (5 % w/w solvent in water) was 55.9 dynes/cm. For the same molecule, the Surface tension (7.5 % w/w solvent in water) was 51.4 dynes/cm, the Surface tension (10 % w/w solvent in water) was 47.8 dynes/cm and the Surface tension (12.5 % w/w solvent in water) was 44.6 dynes/cm. It also gave a Surface tension (15.0 % w/w solvent in water) of 42.2 dynes/cm, a Surface tension (17.5 % w/w solvent in water) of 40.2 dynes/cm and a Surface tension (20 % w/w solvent in water) of 38.0 dynes/cm. For the same molecule, the Surface tension (22.5 % w/w solvent in water) was 36.6 dynes/cm, the Surface tension (25 % w/w solvent in water) was 34.9 dynes/cm and the Surface tension (100 % w/w solvent) was 22.3 dynes/cm.

With CC(O)CO (stereo not shown) [Propylene Glycol USP, propylene glycol] the Surface tension (1.0 % w/w solvent in water) was 70.8 dynes/cm, the Surface tension (2.5 % w/w solvent in water) was 68.7 dynes/cm and the Surface tension (5 % w/w solvent in water) was 65.9 dynes/cm. It also gave a Surface tension (7.5 % w/w solvent in water) of 63.6 dynes/cm, a Surface tension (10 % w/w solvent in water) of 61.7 dynes/cm and a Surface tension (12.5 % w/w solvent in water) of 59.7 dynes/cm. It also gave a Surface tension (15.0 % w/w solvent in water) of 58.3 dynes/cm, a Surface tension (17.5 % w/w solvent in water) of 56.5 dynes/cm and a Surface tension (20 % w/w solvent in water) of 55.2 dynes/cm. The Surface tension (22.5 % w/w solvent in water) was 54.1 dynes/cm, the Surface tension (25 % w/w solvent in water) was 52.8 dynes/cm and the Surface tension (30 % w/w solvent in water) was 50.6 dynes/cm. The Surface tension (100 % w/w solvent) was 36.1 dynes/cm and the “concentration suitable for the invention (surface tension less than 64 dynes/cm)” value (solvent in water, from the data of Table 4) was at least 7.5%.

Molecule CC(C)O [Isopropyl Alcohol, isopropyl alcohol] has a Surface tension (1.0 % w/w solvent in water) of 62.1 dynes/cm, a Surface tension (5 % w/w solvent in water) of 47.3 dynes/cm and a Surface tension (7.5 % w/w solvent in water) of 42.0 dynes/cm. It also gave a Surface tension (10 % w/w solvent in water) of 38.6 dynes/cm, a Surface tension (12.5 % w/w solvent in water) of 35.7 dynes/cm and a Surface tension (15.0 % w/w solvent in water) of 33.1 dynes/cm. It also gave a Surface tension (17.5 % w/w solvent in water) of 31.1 dynes/cm, a Surface tension (20 % w/w solvent in water) of 29.5 dynes/cm and a Surface tension (22.5 % w/w solvent in water) of 28.1 dynes/cm. The Surface tension (25 % w/w solvent in water) was 27.3 dynes/cm and the Surface tension (100 % w/w solvent) was 21.1 dynes/cm.

In the case of OCC(O)CO [Glycerin USP, glycerin], the Surface tension (25 % w/w solvent in water) is reported as 69.8 dynes/cm, the Surface tension (50 % w/w solvent in water) is reported as 68.9 dynes/cm and the Surface tension (75 % w/w solvent in water) is reported as 66.4 dynes/cm. The Surface tension (100 % w/w solvent) was 62.0 dynes/cm and the “suitability for the present method” value (by itself, at concentrations of 75% or less) was “not suitable”.

Molecule CCOCCOCCO [Ethoxy Diglycol NF, ethoxydiglycol] has a Surface tension (1.0 % w/w solvent in water) of 66.2 dynes/cm, a Surface tension (2.5 % w/w solvent in water) of 62.5 dynes/cm and a Surface tension (5 % w/w solvent in water) of 56.8 dynes/cm. It also gave a Surface tension (7.5 % w/w solvent in water) of 55.3 dynes/cm, a Surface tension (10 % w/w solvent in water) of 53.1 dynes/cm and a Surface tension (12.5 % w/w solvent in water) of 50.4 dynes/cm. It also gave a Surface tension (15.0 % w/w solvent in water) of 49.7 dynes/cm, a Surface tension (17.5 % w/w solvent in water) of 47.6 dynes/cm and a Surface tension (20 % w/w solvent in water) of 43.2 dynes/cm. The Surface tension (22.5 % w/w solvent in water) was 43.1 dynes/cm, the Surface tension (25 % w/w solvent in water) was 43.8 dynes/cm and the Surface tension (100 % w/w solvent) was 32.0 dynes/cm.

OCCCO [1,3-Propanediol, 1,3-propanediol] showed a Surface tension (1.0 % w/w solvent in water) of 69.8 dynes/cm, a Surface tension (2.5 % w/w solvent in water) of 68.1 dynes/cm and a Surface tension (5 % w/w solvent in water) of 64.6 dynes/cm. It also gave a Surface tension (7.5 % w/w solvent in water) of 64.4 dynes/cm, a Surface tension (10 % w/w solvent in water) of 61.2 dynes/cm and a Surface tension (12.5 % w/w solvent in water) of 61.1 dynes/cm. It also gave a Surface tension (15.0 % w/w solvent in water) of 61.0 dynes/cm, a Surface tension (17.5 % w/w solvent in water) of 58.9 dynes/cm and a Surface tension (20 % w/w solvent in water) of 60.4 dynes/cm. It also gave a Surface tension (22.5 % w/w solvent in water) of 58.2 dynes/cm and a Surface tension (25 % w/w solvent in water) of 58.3 dynes/cm.

— patent publication US9744150B2, “Suspension containing micronized benzoyl peroxide” (Dow Pharmaceutical Sciences Inc., priority 2009, dated 2017)
